Measured values published in publication PMC11211886 (Frontiers in Pharmacology, 2024).
Like-named read-outs stand apart in the source and are kept apart here.

Legend:
[1] = Single-dose PK and food effect in beagle dogs (IV/PO); parameters: species or system beagle dog; settings: in vivo; for AUC(0-inf): AUC0-inf
Description: Twelve beagle dogs (6-10 kg, male: female = 1:1) purchased from Beijing Marshall Biotechnology Co. Ltd. (Beijing, China) were enrolled in a three-period self-control cross-over study with a washout time of 1 week. […] In Period 1 and Period 2, dogs were fasted overnight until dosing. […] Approximately 1.0 mL of blood was collected per time point from the jugular vein using a 2 mL injector and transferred to a 3 mL tube that contained sodium heparin. The collected blood samples were centrifuged at 3,500 g for 5 min at 4°C to collect plasma within 30 min after sample collection. […] Animals were fasted overnight and for approximately 4 h post-dose. […] At each time point, approximately 1.0 mL of blood was collected from the femoral vein and transferred into an individual tube that contained sodium heparin. The blood samples were centrifuged at 3,500 g for 5 min at 4°C to harvest plasma.

[2] = biological target: T1, BCRP (Homo sapiens, UniProt Q9UNQ0); test: in vitro; settings: human
T1 sequence (Q9UNQ0 1-655): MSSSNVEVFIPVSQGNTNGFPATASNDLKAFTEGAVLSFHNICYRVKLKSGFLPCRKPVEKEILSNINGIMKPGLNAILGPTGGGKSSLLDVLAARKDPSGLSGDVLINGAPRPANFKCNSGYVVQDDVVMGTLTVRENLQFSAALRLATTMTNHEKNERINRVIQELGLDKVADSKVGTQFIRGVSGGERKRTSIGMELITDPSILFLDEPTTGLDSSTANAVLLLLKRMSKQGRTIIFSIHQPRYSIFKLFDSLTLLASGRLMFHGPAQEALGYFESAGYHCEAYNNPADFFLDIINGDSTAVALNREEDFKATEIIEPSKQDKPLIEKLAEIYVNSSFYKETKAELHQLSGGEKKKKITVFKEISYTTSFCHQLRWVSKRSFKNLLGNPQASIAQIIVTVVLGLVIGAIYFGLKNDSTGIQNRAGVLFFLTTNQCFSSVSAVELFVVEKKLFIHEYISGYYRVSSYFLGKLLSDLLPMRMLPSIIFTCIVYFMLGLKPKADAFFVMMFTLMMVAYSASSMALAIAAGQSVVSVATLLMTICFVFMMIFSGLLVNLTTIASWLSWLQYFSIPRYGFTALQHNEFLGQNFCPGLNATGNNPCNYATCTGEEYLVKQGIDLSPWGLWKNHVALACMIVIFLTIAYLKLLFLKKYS
Description: (§1) The experimental conditions were similar to those of the permeability study.

[3] = biological target: P-gp (Homo sapiens, UniProt P08183); test: P-gp inhibition, digoxin transport across Caco-2 monolayers
P-gp, sequence (P08183 whole entry): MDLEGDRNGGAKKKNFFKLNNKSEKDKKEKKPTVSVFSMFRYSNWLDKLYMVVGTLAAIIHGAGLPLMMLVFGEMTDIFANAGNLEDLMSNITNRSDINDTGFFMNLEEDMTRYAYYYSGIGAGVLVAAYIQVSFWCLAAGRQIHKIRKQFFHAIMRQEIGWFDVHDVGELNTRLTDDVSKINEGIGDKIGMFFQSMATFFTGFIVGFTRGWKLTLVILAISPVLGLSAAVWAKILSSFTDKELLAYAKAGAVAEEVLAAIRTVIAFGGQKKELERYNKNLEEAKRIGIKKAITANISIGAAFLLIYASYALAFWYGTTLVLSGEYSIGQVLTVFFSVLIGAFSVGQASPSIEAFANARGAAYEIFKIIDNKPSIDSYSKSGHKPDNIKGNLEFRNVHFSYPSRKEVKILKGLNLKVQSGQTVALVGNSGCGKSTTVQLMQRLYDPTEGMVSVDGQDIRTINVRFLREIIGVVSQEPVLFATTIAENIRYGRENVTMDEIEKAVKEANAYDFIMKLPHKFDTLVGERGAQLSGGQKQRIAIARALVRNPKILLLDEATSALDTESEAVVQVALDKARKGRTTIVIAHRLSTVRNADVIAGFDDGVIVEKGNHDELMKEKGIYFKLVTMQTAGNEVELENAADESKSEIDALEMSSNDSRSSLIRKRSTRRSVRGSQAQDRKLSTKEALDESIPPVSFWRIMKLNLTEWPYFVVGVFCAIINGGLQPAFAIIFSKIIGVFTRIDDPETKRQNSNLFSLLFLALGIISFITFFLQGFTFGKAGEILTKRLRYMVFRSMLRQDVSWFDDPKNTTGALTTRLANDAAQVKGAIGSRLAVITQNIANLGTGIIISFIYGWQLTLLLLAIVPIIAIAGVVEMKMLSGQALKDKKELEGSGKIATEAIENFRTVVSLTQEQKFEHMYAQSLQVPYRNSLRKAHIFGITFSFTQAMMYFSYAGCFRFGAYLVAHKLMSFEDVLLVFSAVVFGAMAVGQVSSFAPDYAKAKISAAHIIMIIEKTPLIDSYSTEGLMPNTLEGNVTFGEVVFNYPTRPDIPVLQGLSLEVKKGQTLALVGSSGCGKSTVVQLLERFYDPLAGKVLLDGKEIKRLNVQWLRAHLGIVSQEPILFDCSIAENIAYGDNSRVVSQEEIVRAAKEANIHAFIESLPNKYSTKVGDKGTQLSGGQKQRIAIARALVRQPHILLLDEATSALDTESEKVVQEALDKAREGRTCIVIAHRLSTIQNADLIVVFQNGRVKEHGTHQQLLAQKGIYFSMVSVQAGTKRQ
Description: as §1

[4] = Metabolic stability in dog liver microsomes; format: in vitro ADME; settings: for CLint scaled at 1 µM / half-life at 1 µM: pH 7.4; for CLint scaled at 1 µM: read-out: Predicted CL int, iv vivo; for half-life at 1 µM: read-out: in vitro t1/2
Description: FMO was deactivated by heating liver microsomes at 45°C for 5 min. […] The natural logarithm of the percentage of the drug remaining was plotted against the incubation time, and the slope of the linear regression (-k) was converted to in vitro half-lives (t1/2) using the following equation: […] (1) metabolic clearance is the major mechanism of clearance; (2) liver is the major organ of clearance; and (3) oxidation is the major metabolic pathway. CLint,in vitro=k / Cmicrosomes , Scaled CLint,in vivo=CLint,in vitro×microsomes yield×liver weight, where Cmicrosomes means the experimental protein concentration (0.5 mg/mL) in the incubation system. […] Then, the scaled in vivo intrinsic clearance was used to predict the systemic clearance (equal to the hepatic clearance) using the well-stirred venous equilibration model ([Houston, 1994]).

[5] = both sexes, beagle, dog, iv, 0.5 mg/kg
[6] = both sexes, beagle, dog, po, 0.5 mg/kg
[7] = both sexes, beagle, dog, po, 3.5 mg/kg
[8] = both sexes, beagle, dog, po, 25 mg/kg
[9] = FMO-deactivated liver microsomes, female dog liver microsomes, FMO deactivation
[10] = FMO-deactivated liver microsomes, male dog liver microsomes, FMO deactivation
[11] = female dog liver microsomes, normal
[12] = male dog liver microsomes, normal

C[C@H](Nc1ncnc(N)c1C#N)c1cc2ncc(Cl)n2nc1-c1ccccc1 [Amdizalisib]
AUC(0-t) [1, 5]: 750 ± 272 ng·h/mL | Vd [1, 5]: 2.4 ± 0.354 L/kg | AUC(0-inf) [1, 5]: 772 ± 272 ng·h/mL | MRT ([1]; both sexes, beagle, dog, iv, 0.5 mg/kg, Beagle dog, fasted, IV 0.5 mg/kg, read-out: MRT): 3.65 ± 1.29 h | half-life ([1]; both sexes, beagle, dog, iv, 0.5 mg/kg, Beagle dog, fasted, IV 0.5 mg/kg, read-out: t1/2 (converted)): 3.02 ± 1.27 h | MRT [1, 6]: 9.66 ± 6.73 h | Tmax [1, 6]: 1.92 ± 0.665 h | half-life [1, 6]: 7.22 ± 6.55 h | AUC(0-inf) [1, 6]: 359 ± 259 ng·h/mL | Cmax ([1]; both sexes, beagle, dog, po, 0.5 mg/kg, Cmax): 42.4 ± 21.8 ng/mL | AUC(0-t) [1, 7]: 5540 ng·h/mL | MRT [1, 7]: 13.8 ± 4.85 h | Tmax [1, 7]: 6.25 ± 9.11 h | AUC(0-inf) [1, 7]: 5660 ng·h/mL | half-life ([1]; both sexes, beagle, dog, po, 3.5 mg/kg, Beagle dog, fasted, PO 3.5 mg/kg, read-out: t1/2 (converted)): 6.08 ± 1.48 h | AUC(0-t) [1, 8]: 66500 ng·h/mL | AUC(0-inf) [1, 8]: 72800 ng·h/mL | MRT ([1]; both sexes, beagle, dog, po, 25 mg/kg, Beagle dog, fasted, PO 25 mg/kg, read-out: MRT): 31.8 ± 10.2 h | Tmax ([1]; both sexes, beagle, dog, po, 25 mg/kg, Beagle dog, fasted, PO 25 mg/kg, read-out: Tmax): 15 ± 10.4 h | half-life ([1]; both sexes, beagle, dog, po, 25 mg/kg, Beagle dog, fasted, PO 25 mg/kg, read-out: t1/2 (converted)): 13.9 ± 5.07 h | Tmax ([1]; both sexes, beagle, dog, po, 25 mg/kg, Beagle dog, fed, PO 25 mg/kg, read-out: Tmax): 7 ± 8.34 h | half-life ([1]; both sexes, beagle, dog, po, 25 mg/kg, Beagle dog, fed, PO 25 mg/kg, read-out: t1/2 (converted)): 17.4 ± 2.49 h | clearance ([1]; both sexes, Beagle dog, fasted, IV 0.5 mg/kg): 11.8 ± 3.61 mL/min/kg | Cmax ([1]; both sexes, Beagle dog, fasted, PO 3.5 mg/kg, read-out: Cmax): 347 ± 105 ng/mL | CL as % of the hepatic blood flow ([1]; both, beagle, dog, iv): 38.1% | Cmax ([1]; both, beagle, dog, po, 25 mg/kg): 2,159 ± 1,070 ng/mL | inhibition at 60 min, 0.1 µM [2]: 28.5% | inhibition at 60 min, 0.5 µM [2]: 34.2% | inhibition at 60 min, 2 µM [2]: 21.3% | inhibition at 60 min, 5 µM [2]: 24.2% | inhibition at 60 min, 10 µM [2]: 43.6% | inhibition at 60 min, 40 µM [2]: 52.9% | inhibition at 60 min, 60 µM [2]: 66.4% | inhibition at 60 min, 80 µM [2]: 52% | IC50 [3]: 22.9 µM | inhibition at 60 min, 0.5 µM ([3]; human): -3.22% | inhibition at 60 min, 2 µM ([3]; human): 1.75% | inhibition at 60 min, 5 µM ([3]; human): 17% | inhibition at 60 min, 20 µM ([3]; human): 46.5% | inhibition at 60 min, 40 µM ([3]; human): 58.4% | inhibition at 60 min, 60 µM ([3]; human): 75.9% | inhibition at 60 min, 80 µM ([3]; human): 83.6% | CLint scaled at 1 µM [4, 9]: 50.4 mL/min/kg | half-life at 1 µM [4, 9]: 0.66 h | CLint scaled at 1 µM [4, 10]: 19.9 mL/min/kg | half-life at 1 µM [4, 10]: 1.67 h | Predicted CL sys ([4]; female dog liver microsomes, FMO deactivation): 19.2 mL/min/kg | Predicted CL sys [4, 11]: 18.8 mL/min/kg | Predicted CL sys ([4]; male dog liver microsomes, FMO deactivation): 12.1 mL/min/kg | Predicted CL sys [4, 12]: 12.4 mL/min/kg | CLint scaled at 1 µM [4, 11]: 48.1 mL/min/kg | half-life at 1 µM [4, 11]: 0.692 h | CLint scaled at 1 µM [4, 12]: 20.7 mL/min/kg | half-life at 1 µM [4, 12]: 1.6 h
